Assay results from PMC9457556, “Newly Designed Quinazolinone Derivatives as Novel Tyrosinase Inhibitor: Synthesis, Inhibitory Activity, and Mechanism” (Molecules, 2022).
Where two headings read alike, the source gives them in different places. One block for each compound: values may come before it.

How the values were obtained:
mushroom tyrosinase [1] = assay: Mushroom tyrosinase enzyme assay with L-DOPA as substrate (475 nm); conditions: for IC50: L-DOPA oxidation, pH 6.8, 30 °C, mean of triplicate determinations ± standard deviation; for inhibitory activity against tyrosinase: result in words
Procedure: Firstly, the effect of the Q1compound against the tyrosinase activity was evaluated.
We measured enzyme assay with L-DOPA as the substrate. We determined enzyme activity at 475 nm in the spectrophotometric experiments. We dissolved the test compounds in DMSO at 1 mM, which was diluted to the required concentration (0, 15, 30, 60, 120, 180, 240, 300 μM). We measured the reaction solution (3 mL), consisting 0.75 mL sodium phosphate buffer (0.1 M, pH 6.8), 1.8 mL H2O, 0.3 mL L-DOPA (2 mM), 0.1 mL test compound, and 0.05 mL enzyme (0.2 mg /L), at 30 °C. We replaced test samples as control. We determined each concentration in three experiments. We used the concentration that inhibited half of the enzyme activity (IC50) to measure the inhibitory effect of inhibitor. We investigated kinetic parameters with increasing concentrations of L-DOPA and test samples by the Lineweaver–Burk double-reciprocal plot and Dixon plot methods. We calculated the % inhibition of tyrosinase as follows: Inhibition (%) = [1 − B/A]/100, where the A and B are the absorbances of the blank control and samples, respectively.

mushroom tyrosinase [2] = assay: Kinetic studies of tyrosinase inhibition (enzyme concentration plots, Lineweaver-Burk plots); type: biochemical
Procedure: To ascertain the inhibition type and mechanism of Q1, we studied the relationship between the enzyme concentration and the remaining enzyme activity with various concentrations of Q1 (0, 15, 60, and 120 μM).
Different concentrations of the compound Q1 (0, 15, 60, and 120 μM) were applied to inhibit tyrosinase and obtain the kinetic behavior of tyrosinase catalysis. Lineweaver–Burk reciprocal plots were used to investigate the inhibition modes of Q1 on mushroom tyrosinase. […] Thus, Q1 could bind not only to the free enzymes but also to the enzyme–substrate complexes. […] Additionally, the value of KIS was measured to be 423.63 μM from the concentrations of the compound versus the vertical intercept.
We purchased mushroom tyrosinase (with specific activity 6680 U/mg), and L-3,4-dihydroxyphenyl-alanine (L-DOPA) from Sigma (St. Louis, MO, USA). We measured enzyme assay with L-DOPA as the substrate. We determined enzyme activity at 475 nm in the spectrophotometric experiments. We dissolved the test compounds in DMSO at 1 mM, which was diluted to the required concentration (0, 15, 30, 60, 120, 180, 240, 300 μM). We measured the reaction solution (3 mL), consisting 0.75 mL sodium phosphate buffer (0.1 M, pH 6.8), 1.8 mL H2O, 0.3 mL L-DOPA (2 mM), 0.1 mL test compound, and 0.05 mL enzyme (0.2 mg /L), at 30 °C. We replaced test samples as control. We determined each concentration in three experiments. We used the concentration that inhibited half of the enzyme activity (IC50) to measure the inhibitory effect of inhibitor. We investigated kinetic parameters with increasing concentrations of L-DOPA and test samples by the Lineweaver–Burk double-reciprocal plot and Dixon plot methods. We calculated the % inhibition of tyrosinase as follows: Inhibition (%) = [1 − B/A][…], where the A and B are the absorbances of the blank control and samples, respectively.

[3] = Fluorescence quenching of L-DOPA; type: binding; conditions: Q1 from 0 to 36 μM; intensity 1619 to 879.9
Procedure: Finally, the fluorescence emission spectra of L-DOPA were tested in the solutions of Q1 with various concentrations. […] Similarly, the fluorescence emission intensity of Q1 disappeared when it was added to the solution. The results inferred that Q1 was also a good L-DOPA binding agent.
(§1) We used fluorescence analysis (Varian Cary Eclipse fluorescence spectrophotometer) to perform fluorescence experiment, and set the excitation wavelength at 290 nm. We mixed inhibitor solution, substrates of tyrosine/L-DOPA or enzyme solution, and sodium phosphate buffer (pH 6.8) at the volumetric ratio of 1:1:8 (v/v/v).

[4] = Fluorescence quenching of tyrosine; type: binding; conditions: Q1 from 0 to 36 μM; intensity 447.6 to 216.5
Source text: We also investigated the fluorescence quenching Q1 experiment regarding tyrosine activity, and recorded the fluorescence intensity of tyrosine in the range of […]. […] Thus, the compound was also a good binding agent for tyrosine in a dose-dependent manner.
as §1

mushroom tyrosinase [5] = assay: Fluorescence quenching of mushroom tyrosinase; type: binding; conditions: Q1 at 36 μM; excitation 290 nm, emission peak 333 nm
Procedure: The intrinsic interaction mechanisms of Q1 on the tyrosinase were investigated by the fluorescence quenching analysis. The fluorescence emission spectrum was recorded as ranging from 310 to 550 nm at a 290 nm excitation wavelength. […] However, the fluorescence intensity of tyrosinase reduced gradually as the concentration of the citral derivative increased.
as §1

mushroom tyrosinase [6] = biological target: mushroom tyrosinase; design: method as in PMID 20638280; conditions: standard inhibitor; cited from earlier work

IC50 (mushroom tyrosinase [1]): 103 ± 2 µM
inhibition type (mushroom tyrosinase [2]; Lineweaver-Burk plots, Q1 at 0, 15, 60, 120 μM): mixed inhibition type
reversibility of inhibition (mushroom tyrosinase [2]; enzyme activity versus enzyme concentration, Q1 at 0, 15, 60, 120 μM): reversible
KIS (mushroom tyrosinase [2]; enzyme-substrate complex, from vertical intercept versus compound concentration): 423.63 µM
Ki (mushroom tyrosinase [2]; free enzyme, from plots of slope versus compound concentration, read-out: inhibitor constant (KI)): 117 µM
relative fluorescence intensity of tyrosinase (mushroom tyrosinase [5]): 39.45%
SMILES: CC(C)=CCCC(C)=Cc1nc2ccccc2c(=O)[nH]1 [Compound Q1, 2-(2,6-dimethylhepta-1,5-dien-1-yl)quinazolin-4(3H)-one]
decrease of fluorescence intensity of L-DOPA [3]: 45.65%
decrease of fluorescence intensity of tyrosine [4]: 51.63%

melting point: 189 to 191 °C
IC50 (mushroom tyrosinase [1]): 105 ± 1 µM
SMILES: CC(C)=CCCC(C)=Cc1nc2cccc(F)c2c(=O)[nH]1 [Compound Q2, 2-(2,6-dimethylhepta-1,5-dien-1-yl)-5-fluoroquinazolin-4(3H)-one]

melting point: 190 to 192 °C
IC50 (mushroom tyrosinase [1]): 168 ± 2 µM
SMILES: CC(C)=CCCC(C)=Cc1nc2ccc(Cl)cc2c(=O)[nH]1 [Compound Q3, 6-chloro-2-(2,6-dimethylhepta-1,5-dien-1-yl)quinazolin-4(3H)-one]

melting point: 188 to 192 °C
IC50 (mushroom tyrosinase [1]): 253 ± 2 µM
SMILES: CC(C)=CCCC(C)=Cc1nc2cc(C)ccc2c(=O)[nH]1 [Compound Q4, 2-(2,6-dimethylhepta-1,5-dien-1-yl)-7-methylquinazolin-4(3H)-one]

inhibitory activity against tyrosinase (mushroom tyrosinase [1]): did not exhibit inhibitory activity
SMILES: Cc1ccc(-c2nc3ccccc3c(=O)[nH]2)cc1 [Compound Q6, 2-(p-tolyl)quinazolin-4(3H)-one]

inhibitory activity against tyrosinase (mushroom tyrosinase [1]): did not exhibit inhibitory activity
SMILES: COc1ccc(-c2nc3ccccc3c(=O)[nH]2)cc1 [Compound Q7, 2-(4-methoxyphenyl)quinazolin-4(3H)-one]

SMILES: OC[C@H]1O[C@@H](Oc2ccc(O)cc2)[C@H](O)[C@@H](O)[C@@H]1O [arbutin]
IC50 (mushroom tyrosinase [6]): 180 µM
